From publication PMC12090182, “Repurposing of the RIPK1-Selective Benzo[1,4]oxazepin-4-one Scaffold for the Development of a Type III LIMK1/2 Inhibitor” (ACS Chemical Biology, 2025)

How the values were obtained:
Assay type in all cases: cell-based
Conditions in all cases: HEK-293T; 1 μM inhibitor, HEK293T cells
TIE1 = TIE1 (Homo sapiens, UniProt P35590)
Procedure: (§1) For plate preparation, a transfection mix was prepared in white 384-well small-volume plates (Greiner, cat. no. 784075) by preplating 3 μL of 20 μL/mL FuGene HD (Promega, cat. no. E2311), diluted in an Opti-MEM medium (Gibco, cat. no. 11058-021). One μL of DNA from both DNA vector source plates of the K192 kit was added using an Echo 550 acoustic dispenser (Beckman Coulter). The mix was incubated for 30 min, and 6 μL of HEK293T cells in an Opti-MEM medium was added. The proteins were allowed to express for 20 h. After expression, Tracer K10 was added using the concentrations recommended in the K192 technical manual and a 1 μM inhibitor was added to every second well. […] Five μL of substrate solution was added to every well, and filtered luminescence was measured on a PHERAstar plate reader (BMG Labtech) equipped with a luminescence filter pair (450 nm BP filter (donor) and a 610 nm LP filter (acceptor)). For every kinase, occupancy was calculated and plotted using GraphPad Prism 10 (Table S5).

STK38 = STK38 (Homo sapiens, UniProt Q15208)
Procedure: as §1

FLT3 = FLT3 (Homo sapiens, UniProt P36888)
Procedure: as §1

DCLK3 = DCLK3 (Homo sapiens, UniProt Q9C098)
Procedure: as §1

CDKL5 = CDKL5 (Homo sapiens, UniProt O76039)
Procedure: as §1

SLK = SLK (Homo sapiens, UniProt Q9H2G2)
Procedure: as §1

HIPK3 = HIPK3 (Homo sapiens, UniProt Q9H422)
Procedure: as §1

BMX = BMX (Homo sapiens, UniProt P51813)
Procedure: as §1

TXK = TXK (Homo sapiens, UniProt P42681)
Procedure: as §1

PLK3 = PLK3 (Homo sapiens, UniProt Q9H4B4)
Procedure: as §1

NTRK1 = NTRK1 (Homo sapiens, UniProt P04629)
Procedure: as §1

ULK1 = ULK1 (Homo sapiens, UniProt O75385)
Procedure: as §1

CSNK1G2 = CSNK1G2 (Homo sapiens, UniProt P78368)
Procedure: as §1

SIK1 = SIK1 (Homo sapiens, UniProt P57059)
Procedure: as §1

NIM1K = NIM1K (Homo sapiens, UniProt Q8IY84)
Procedure: as §1

RPS6KA3 = RPS6KA3 (Homo sapiens, UniProt P51812)
Procedure: as §1

FER = FER (Homo sapiens, UniProt P16591)
Procedure: as §1

AURKB = AURKB (Homo sapiens, UniProt Q96GD4)
Procedure: as §1

RET = RET (Homo sapiens, UniProt P07949)
Procedure: as §1

STK17B = STK17B (Homo sapiens, UniProt O94768)
Procedure: as §1

JAK3 = JAK3 (Homo sapiens, UniProt P52333)
Procedure: as §1

IRAK4 = IRAK4 (Homo sapiens, UniProt Q9NWZ3)
Procedure: as §1

MAP4K5 = MAP4K5 (Homo sapiens, UniProt Q9Y4K4)
Procedure: as §1

TLK1 = TLK1 (Homo sapiens, UniProt Q9UKI8)
Procedure: as §1

LATS1 = LATS1 (Homo sapiens, UniProt O95835)
Procedure: as §1

STK36 = STK36 (Homo sapiens, UniProt Q9NRP7)
Procedure: as §1

PHKG2 = PHKG2 (Homo sapiens, UniProt P15735)
Procedure: as §1

MLTK = MLTK (Homo sapiens, UniProt Q9NYL2)
Procedure: as §1

CDK7 = CDK7 (Homo sapiens, UniProt P50613)
Procedure: as §1

EPHA1 = EPHA1 (Homo sapiens, UniProt P21709)
Procedure: as §1

CSNK2A2 = CSNK2A2 (Homo sapiens, UniProt P19784)
Procedure: as §1

MKNK2 = MKNK2 (Homo sapiens, UniProt Q9HBH9)
Procedure: as §1

MAPK6 = MAPK6 (Homo sapiens, UniProt Q16659)
Procedure: as §1

HIPK2 = HIPK2 (Homo sapiens, UniProt Q9H2X6)
Procedure: as §1

MAP3K2 = MAP3K2 (Homo sapiens, UniProt Q9Y2U5)
Procedure: as §1

PRKACB = PRKACB (Homo sapiens, UniProt P22694)
Procedure: as §1

CDK18 = CDK18 (Homo sapiens, UniProt Q07002)
Procedure: as §1

Sequence of NIM1K (Q8IY84 whole entry): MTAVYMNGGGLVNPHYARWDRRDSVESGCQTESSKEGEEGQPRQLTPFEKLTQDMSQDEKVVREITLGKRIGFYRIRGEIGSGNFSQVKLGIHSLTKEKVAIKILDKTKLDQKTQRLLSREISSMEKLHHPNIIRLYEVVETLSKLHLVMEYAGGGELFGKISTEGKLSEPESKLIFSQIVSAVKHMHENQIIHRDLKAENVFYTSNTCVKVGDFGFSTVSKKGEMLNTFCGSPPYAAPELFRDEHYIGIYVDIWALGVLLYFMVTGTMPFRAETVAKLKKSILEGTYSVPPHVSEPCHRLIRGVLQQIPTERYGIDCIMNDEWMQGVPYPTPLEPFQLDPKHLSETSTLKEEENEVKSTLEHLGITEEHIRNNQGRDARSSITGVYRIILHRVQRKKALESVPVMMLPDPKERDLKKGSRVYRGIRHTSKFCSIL
Sequence of FLT3 (P36888 27-993): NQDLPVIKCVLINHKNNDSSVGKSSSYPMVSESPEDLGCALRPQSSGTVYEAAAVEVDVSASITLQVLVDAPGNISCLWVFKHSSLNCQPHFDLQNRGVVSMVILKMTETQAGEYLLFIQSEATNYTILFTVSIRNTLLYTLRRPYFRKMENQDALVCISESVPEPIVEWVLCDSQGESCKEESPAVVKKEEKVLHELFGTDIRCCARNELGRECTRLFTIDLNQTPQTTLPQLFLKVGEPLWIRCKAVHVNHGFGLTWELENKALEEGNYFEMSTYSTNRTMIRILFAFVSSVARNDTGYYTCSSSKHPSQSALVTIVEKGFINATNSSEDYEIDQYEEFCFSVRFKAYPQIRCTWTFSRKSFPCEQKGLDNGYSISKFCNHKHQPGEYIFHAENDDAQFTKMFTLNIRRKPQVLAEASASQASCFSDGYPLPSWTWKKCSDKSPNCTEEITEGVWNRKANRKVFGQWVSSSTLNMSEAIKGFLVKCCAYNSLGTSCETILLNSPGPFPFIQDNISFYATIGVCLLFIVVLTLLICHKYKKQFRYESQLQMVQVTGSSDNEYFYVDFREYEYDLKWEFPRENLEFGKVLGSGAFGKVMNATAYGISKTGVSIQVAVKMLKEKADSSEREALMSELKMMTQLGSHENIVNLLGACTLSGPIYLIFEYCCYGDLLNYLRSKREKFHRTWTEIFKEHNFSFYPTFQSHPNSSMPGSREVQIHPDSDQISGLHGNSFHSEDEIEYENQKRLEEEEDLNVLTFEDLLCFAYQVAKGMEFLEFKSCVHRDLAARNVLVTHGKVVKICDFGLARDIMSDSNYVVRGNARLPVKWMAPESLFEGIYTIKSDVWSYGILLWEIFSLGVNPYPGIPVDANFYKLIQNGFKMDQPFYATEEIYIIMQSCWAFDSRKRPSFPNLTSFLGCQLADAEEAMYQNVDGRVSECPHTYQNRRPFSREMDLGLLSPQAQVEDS
Sequence of NTRK1 (P04629 33-796): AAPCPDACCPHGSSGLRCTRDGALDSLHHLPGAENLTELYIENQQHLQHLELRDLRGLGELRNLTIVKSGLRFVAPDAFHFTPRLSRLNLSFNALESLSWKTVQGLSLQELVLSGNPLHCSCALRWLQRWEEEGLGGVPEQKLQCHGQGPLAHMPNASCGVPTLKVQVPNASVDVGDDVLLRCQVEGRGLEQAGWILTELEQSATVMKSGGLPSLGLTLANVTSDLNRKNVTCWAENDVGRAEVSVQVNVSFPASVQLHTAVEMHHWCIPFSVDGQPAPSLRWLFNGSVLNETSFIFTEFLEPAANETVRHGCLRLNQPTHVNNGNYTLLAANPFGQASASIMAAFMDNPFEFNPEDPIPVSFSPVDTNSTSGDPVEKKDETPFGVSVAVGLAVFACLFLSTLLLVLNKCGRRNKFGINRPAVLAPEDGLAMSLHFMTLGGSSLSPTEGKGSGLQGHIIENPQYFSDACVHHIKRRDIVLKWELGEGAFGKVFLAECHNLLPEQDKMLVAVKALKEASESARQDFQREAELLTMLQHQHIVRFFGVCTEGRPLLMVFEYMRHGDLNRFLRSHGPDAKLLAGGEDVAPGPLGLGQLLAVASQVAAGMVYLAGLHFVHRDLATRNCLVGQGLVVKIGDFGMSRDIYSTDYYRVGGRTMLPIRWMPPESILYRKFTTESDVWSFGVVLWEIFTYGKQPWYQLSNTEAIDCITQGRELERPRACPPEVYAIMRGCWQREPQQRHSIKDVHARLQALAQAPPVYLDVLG
Sequence of RET (P07949 29-1114): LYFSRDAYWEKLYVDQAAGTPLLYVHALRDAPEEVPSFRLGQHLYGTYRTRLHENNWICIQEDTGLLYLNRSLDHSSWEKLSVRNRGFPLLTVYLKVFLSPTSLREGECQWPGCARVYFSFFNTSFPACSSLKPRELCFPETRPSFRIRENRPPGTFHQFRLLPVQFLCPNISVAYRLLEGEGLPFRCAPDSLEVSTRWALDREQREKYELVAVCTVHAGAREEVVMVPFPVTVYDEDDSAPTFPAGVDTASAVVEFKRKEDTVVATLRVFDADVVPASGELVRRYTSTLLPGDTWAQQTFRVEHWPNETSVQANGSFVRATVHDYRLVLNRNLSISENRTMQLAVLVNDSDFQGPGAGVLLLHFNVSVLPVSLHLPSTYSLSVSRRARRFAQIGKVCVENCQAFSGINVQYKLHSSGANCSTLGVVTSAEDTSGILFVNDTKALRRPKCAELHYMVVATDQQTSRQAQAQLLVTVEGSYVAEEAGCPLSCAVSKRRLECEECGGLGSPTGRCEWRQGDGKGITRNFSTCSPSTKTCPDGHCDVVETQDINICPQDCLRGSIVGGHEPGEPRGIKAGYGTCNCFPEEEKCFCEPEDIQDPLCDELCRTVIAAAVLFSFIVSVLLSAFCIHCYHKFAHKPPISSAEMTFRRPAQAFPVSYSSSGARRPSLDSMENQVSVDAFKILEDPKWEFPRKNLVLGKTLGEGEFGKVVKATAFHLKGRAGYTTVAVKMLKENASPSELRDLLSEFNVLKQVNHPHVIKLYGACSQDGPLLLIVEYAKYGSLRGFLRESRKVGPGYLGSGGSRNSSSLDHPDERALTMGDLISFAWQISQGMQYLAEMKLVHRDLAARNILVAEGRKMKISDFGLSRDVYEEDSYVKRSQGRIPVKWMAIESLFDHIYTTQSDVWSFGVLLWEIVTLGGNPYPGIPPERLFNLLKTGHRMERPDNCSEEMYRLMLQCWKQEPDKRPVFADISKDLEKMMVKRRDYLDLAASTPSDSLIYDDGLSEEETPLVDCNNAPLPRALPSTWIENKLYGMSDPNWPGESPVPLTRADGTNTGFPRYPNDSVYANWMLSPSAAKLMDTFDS
Sequence of JAK3 (P52333 whole entry): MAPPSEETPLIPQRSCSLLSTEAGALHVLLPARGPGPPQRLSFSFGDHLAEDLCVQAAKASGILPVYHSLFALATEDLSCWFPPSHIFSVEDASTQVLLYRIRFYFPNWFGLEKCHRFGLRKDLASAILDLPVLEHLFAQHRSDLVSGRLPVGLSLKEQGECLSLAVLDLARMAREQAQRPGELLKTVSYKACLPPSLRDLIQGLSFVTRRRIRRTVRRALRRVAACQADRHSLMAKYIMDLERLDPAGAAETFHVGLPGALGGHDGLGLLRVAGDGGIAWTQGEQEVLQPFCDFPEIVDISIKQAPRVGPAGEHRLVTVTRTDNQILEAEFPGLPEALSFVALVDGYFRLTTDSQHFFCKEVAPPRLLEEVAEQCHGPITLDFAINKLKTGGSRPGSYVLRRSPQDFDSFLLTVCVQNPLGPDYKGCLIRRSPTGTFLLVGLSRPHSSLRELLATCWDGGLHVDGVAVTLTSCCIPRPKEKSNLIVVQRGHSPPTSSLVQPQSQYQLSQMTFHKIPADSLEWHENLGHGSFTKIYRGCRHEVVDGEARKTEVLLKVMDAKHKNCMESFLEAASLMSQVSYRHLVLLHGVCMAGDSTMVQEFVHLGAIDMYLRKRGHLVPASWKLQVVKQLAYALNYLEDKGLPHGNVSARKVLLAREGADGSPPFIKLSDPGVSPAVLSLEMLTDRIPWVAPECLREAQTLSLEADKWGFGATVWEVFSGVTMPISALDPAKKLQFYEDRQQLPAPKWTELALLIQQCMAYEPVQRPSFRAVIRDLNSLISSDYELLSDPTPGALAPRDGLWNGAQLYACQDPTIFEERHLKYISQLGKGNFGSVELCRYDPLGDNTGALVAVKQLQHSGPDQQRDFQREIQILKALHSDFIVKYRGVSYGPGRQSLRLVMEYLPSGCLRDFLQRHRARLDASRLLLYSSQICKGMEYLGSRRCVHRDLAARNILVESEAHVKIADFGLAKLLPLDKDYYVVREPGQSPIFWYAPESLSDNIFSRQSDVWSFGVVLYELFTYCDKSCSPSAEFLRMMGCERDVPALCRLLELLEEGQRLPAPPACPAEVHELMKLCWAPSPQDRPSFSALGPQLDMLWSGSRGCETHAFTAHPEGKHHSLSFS
Sequence of CDK7 (P50613 whole entry): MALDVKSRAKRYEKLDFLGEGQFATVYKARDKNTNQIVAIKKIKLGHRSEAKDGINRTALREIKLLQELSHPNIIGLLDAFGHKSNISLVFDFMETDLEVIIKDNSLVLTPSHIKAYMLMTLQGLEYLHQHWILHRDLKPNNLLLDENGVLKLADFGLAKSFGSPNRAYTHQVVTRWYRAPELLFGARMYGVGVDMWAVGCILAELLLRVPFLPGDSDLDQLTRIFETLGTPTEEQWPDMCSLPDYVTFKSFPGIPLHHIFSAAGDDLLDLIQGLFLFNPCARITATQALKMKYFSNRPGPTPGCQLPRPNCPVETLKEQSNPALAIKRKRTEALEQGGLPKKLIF
Sequence of AURKB (Q96GD4 whole entry): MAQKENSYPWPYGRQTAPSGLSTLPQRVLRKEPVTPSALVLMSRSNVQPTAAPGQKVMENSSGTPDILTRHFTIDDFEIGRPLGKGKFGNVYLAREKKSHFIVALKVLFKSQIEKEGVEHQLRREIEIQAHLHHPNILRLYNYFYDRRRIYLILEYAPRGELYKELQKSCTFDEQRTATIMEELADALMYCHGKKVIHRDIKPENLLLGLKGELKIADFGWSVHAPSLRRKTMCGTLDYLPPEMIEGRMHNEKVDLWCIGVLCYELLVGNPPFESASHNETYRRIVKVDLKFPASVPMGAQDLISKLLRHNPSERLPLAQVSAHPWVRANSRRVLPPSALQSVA

Q: With `CN1C(=O)[C@@H](N2CCc3c(nn(Cc4ccccc4)c3C(N)=O)C2=O)COc2cc(Cl)ccc21` [Compound 10, (S)-2-benzyl-6-(8-chloro-5-methyl-4-oxo-2,3,4,5-tetrahydrobenzo[b][1,4]oxazepin-3-yl)-7-oxo-4,5,6,7-tetrahydro-2H-pyrazolo[3,4-c]pyridine-3-carboxamide] as the molecule, how does the receptor occupancy at 1 µM (TIE1) read?
A: -1.51%

Q: And the receptor occupancy at 1 µM (STK38)?
A: 4.93%

Q: And the receptor occupancy at 1 µM (FLT3)?
A: -3.18%

Q: What about the receptor occupancy at 1 µM (DCLK3) of the same molecule?
A: 2.41%

Q: And the receptor occupancy at 1 µM (CDKL5)?
A: 1.05%

Q: And the receptor occupancy at 1 µM (SLK)?
A: 19%

Q: What about the receptor occupancy at 1 µM (HIPK3) of the same molecule?
A: 11.8%

Q: And the receptor occupancy at 1 µM (BMX)?
A: -3.33%

Q: What about the receptor occupancy at 1 µM (TXK) of the same molecule?
A: 4.81%

Q: What about the receptor occupancy at 1 µM (PLK3) of the same molecule?
A: 2.41%

Q: What about the receptor occupancy at 1 µM (NTRK1) of the same molecule?
A: 0.821%

Q: And the receptor occupancy at 1 µM (ULK1)?
A: 4.3%

Q: And the receptor occupancy at 1 µM (CSNK1G2)?
A: 3.57%

Q: And the receptor occupancy at 1 µM (SIK1)?
A: -3.59%

Q: And the receptor occupancy at 1 µM (NIM1K)?
A: 5.36%

Q: And the receptor occupancy at 1 µM (RPS6KA3)?
A: -0.166%

Q: And the receptor occupancy at 1 µM (FER)?
A: 15.8%

Q: And the receptor occupancy at 1 µM (AURKB)?
A: -2.1%

Q: And the receptor occupancy at 1 µM (RET)?
A: -7.79%

Q: And the receptor occupancy at 1 µM (STK17B)?
A: 8%

Q: And the receptor occupancy at 1 µM (JAK3)?
A: 4.78%

Q: What about the receptor occupancy at 1 µM (IRAK4) of the same molecule?
A: -8.73%

Q: And the receptor occupancy at 1 µM (MAP4K5)?
A: 16.7%

Q: What about the receptor occupancy at 1 µM (TLK1) of the same molecule?
A: 26.6%

Q: And the receptor occupancy at 1 µM (LATS1)?
A: -16%

Q: And the receptor occupancy at 1 µM (STK36)?
A: -3.44%

Q: What about the receptor occupancy at 1 µM (PHKG2) of the same molecule?
A: -1.01%

Q: What about the receptor occupancy at 1 µM (MLTK) of the same molecule?
A: -2.56%

Q: And the receptor occupancy at 1 µM (CDK7)?
A: -11.3%

Q: What about the receptor occupancy at 1 µM (EPHA1) of the same molecule?
A: 2.07%

Q: What about the receptor occupancy at 1 µM (CSNK2A2) of the same molecule?
A: 1.08%

Q: And the receptor occupancy at 1 µM (MKNK2)?
A: 2.69%

Q: What about the receptor occupancy at 1 µM (MAPK6) of the same molecule?
A: -8.43%

Q: What about the receptor occupancy at 1 µM (HIPK2) of the same molecule?
A: 16%

Q: What about the receptor occupancy at 1 µM (MAP3K2) of the same molecule?
A: -2.55%

Q: What about the receptor occupancy at 1 µM (PRKACB) of the same molecule?
A: 0.396%

Q: What about the receptor occupancy at 1 µM (CDK18) of the same molecule?
A: -5.62%
